From patent US8877773B2, “Methods for treating chronic obstructive pulmonary disease” (Indiana University Research and Technology Corporation, priority 2009, dated 2014)
Entries after “also recorded” stand apart in the source; their conditions may differ.

Legend:
Format in all cases: in vivo, rat
[1] = tested on: panic-prone (1-AG treated) rats; assay: Sodium lactate (NaLac) challenge in panic-prone (1-AG treated) rats: social interaction (SI) test; details: alprazolam 3 mg/kg; for anxiety-like responses (social interaction (SI) duration) after NaLac challenge: i.p. 30 min prior to NaLac, SB334867/SB408124 30 mg/kg, experiments 4 and 6
Excerpt: (§1) The minipump was then sutured into place subcutaneously at the nape of the neck. The concentration of the solutions was such that 3.5 nmol/[…] per hour of 1-AG or d-AG was infused continuously into the DMH/PeF region for the remainder of the given experiment. In the case of the siRNA experiments specialized T-cannulae were implanted permitting access to a removable 28 g injector to direct siRNA injections to the same location as the 1-AG infusions. Additionally these rats had guide cannulae directed to the opposite DMH/PeF for bilateral infusion of siRNA.
(§2) Rats received intravenous (i.v.) infusions (10 ml over 15 min of either 0.5M NaLac or 0.9% isotonic saline (when applicable)) using a syringe pump at least five days following the initiation of 1-AG or d-AG infusions. Once a stable baseline was achieved, i.v. infusions began and cardiovascular and activity data were recorded for 15 min (similar to clinical NaLac infusions).
Another SI test was performed 5 days following minipump infusions and immediately following saline or sodium lactate infusions.
In experiment 3, an RNAase free environment was maintained throughout the injection procedure and all injectors, syringes and tubing were exposed to RNaseZAP and rinsed thoroughly with RNA-free water prior to siRNA injections. […] 48 hrs after siORX or siCON treatment, these rats were exposed to saline or NaLac infusions (siCon/Sal n=4, siORX/Sal n=6, siCON/Lac n=5, siORX/Lac n=6) and SI behavioral and cardiovascular responses were recorded, and were then sacrificed by rapid decapitation, following a brief (30 s) exposure to IsoFlurane® 1 hr after the intravenous infusions.
In experiments 4-6, rats were made panic vulnerable with 1-AG. […] In experiment 5, baseline in an open field (OF) behavior test of anxiety was assessed (n=8) prior to 1-AG infusions. […] In experiment 7, control rats (no 1-AG or NaLac treatment) were assessed in a SI test. […]

[2] = tested on: panic-prone (1-AG treated) rats; assay: Sodium lactate (NaLac) challenge in panic-prone rats: radio-telemetry of locomotor and cardiovascular (HR, MAP) responses; details: i.p. 30 min prior to NaLac, SB334867/SB408124 30 mg/kg, alprazolam 3 mg/kg, experiments 4 and 6
Description: Telemetry probes (Data Science International, St. Paul Minn.) were surgically implanted into the abdomen of anaesthetize rats to measure locomotor responses. Cardiovascular responses were measured by a femoral arterial line connected to the telemetric probe which contained a pressure transducer (Data Science International, St. Paul Minn.).
as §1, §2
Cardiovascular responses (i.e., MAP and HR) were measured by a femoral arterial line connected to a telemetric probe which contained a pressure transducer (Cat. no. C50-PXT, Data Science International (DSI) St. Paul Minn.). […] MAP and HR were recorded continuously in freely moving conscious rats and are expressed as a 20 min time course. The data reported are changes in HR and MAP from the average of the baseline (t−5 to t−1) from each rat. […]
In experiments 4-6, rats were made panic vulnerable with 1-AG. 5 days after 1-AG onset, in a counterbalanced design, rats received intraperitoneal (i.p.) injections of treatment drug or vehicle 30 min prior to i.v. infusions. […] In experiment 5, baseline in an open field (OF) behavior test of anxiety was assessed (n=8) prior to 1-AG infusions. […] Immediately following the NaLac challenge, rats were placed in the OF test. […] In experiment 6,1-AG treated rats received an injection of an alternative ORX1 receptor antagonist (30 mg/kg SB408124 (N-(6,8-Difluoro-2-methyl-4-quinolinyl)-N′-(4-(dimethylamino)phenyl)urea), Tocris, in 0.2 ml/100 g volume DMSO, n=4) or vehicle (0.2 ml/100 g volume DMSO, n=6) 30 min prior to NaLac. In experiment 7, control rats (no 1-AG or NaLac treatment) were assessed in a SI test.
Adult male Sprague-Dawley rats were anesthetized and surgically implanted with telemetrical probes to measure cardiovascular activity prior to and during lactate infusions. After a 3 day recovery, rats were anaesthetized and had osmotic minipumps (previously filled with 1-AG) stereotaxically implanted unilaterally into the DMH. […] 1960, Tocris, in 0.2 ml/100 g volume DMSO, n=12], alprazolam (3 mg/kg, Sigma, in 0.2 ml/100 g volume DMSO, n=6) or vehicle (0.2 ml/100 g volume DMSO, n=11) 30 min prior lactate challenge.

FG-7142 treated rats = assay: FG-7142-induced anxiety: open field, social interaction and elevated plus maze tests; details: Wistar rats; FG-7142 7.5 mg/kg ip, with or without SB334867 30 mg/kg ip
Description: All experiments were conducted on adult male Wistar rats (250-300 g) purchased from Harlan Laboratories (Indianapolis, Ind. USA) and were housed individually in plastic cages under standard environmental conditions (22° C.; 12/12 light/dark cycle; lights on at 7:00 A.M.) for 7-10 days prior to the surgical manipulations. Food and water were provided ad libitum.
The open-field arena covered an area of 90 cm×90 cm, with 40 cm high walls. The open-field arena was divided into a 6×6 grid of equally-sized squares using black tape (36 total squares) with 4 squares forming the centre; 12 squares forming the middle perimeter; and 20 squares forming the outer perimeter. The test started by placing a rat in the centre. The behavior of each rat in the open-field arena was recorded on video and scored afterwards by an observer blind to the experimental treatment of each rat. Time spent in each region of the open-field was recorded. In addition, locomotor activity was assessed by counting the number of times the rat's entire body (excluding tail) completely crossed into another square.
Following the OFT, the experimental rat was placed in an open field (0.9 m long×0.9 m wide with walls 0.3 m high) with an untreated novel partner rat. A video camera was fixed above the box, and all behavioral tests were videotaped. During the 5 min test the total amount of time the treated rat initiates interaction with the partner rat is recorded (sniffing, grooming etc.) as described previously. Videotaped sessions were scored at a later time by a SDF (blind to treatments) and a decrease in total interaction time was taken as an increase in “anxiety” like behavior.
Following the SI test, rats were place in the center area of the EPM where the two arms intersect. Unlike the SI test, the EPM measures many relevant anxiety related behaviors such as: no. of poke and full entries into and duration spent in closed versus open arm. […] Activity is measured using […] state of the art photobeams (16× beams and 16 Y beams) to provide the highest resolution system available (Automated EPM, Hamilton Kinder Scientific, San diego, CA).

c-Fos = c-Fos immunoreactive cell counts in brain regions after FG-7142 challenge; details: FG-7142 7.5 mg/kg ip after vehicle (veh/FG) or SB334867 30 mg/kg ip (SB/FG); 90 min
Description: Fifteen min after the FG-7142 injection, all rats were tested for anxiety behavior using a 5 min open field test (OFT); 5 min social interaction (SI) test; then a 5 min elevated plus maze (EPM) test. Ninety min following FG-7142 injections, rats were anaesthetized and then the brains were removed and processed for immunohistochemistry as described in detail in subsequent section.
Ninety min following the initiation of treatment, rats were anaesthetised with an overdose of sodium pentobarbital (40 mg, i.p.) then perfused transcardially with 0.05 M phosphate buffered saline (PBS; 250 ml), followed by 0.1 M sodium phosphate buffer (PB; 250 ml) containing 4% paraformaldehyde (PFA) and 3% sucrose. Brains were removed and post-fixed for 24 h in the same fixative, rinsed for 24 h in 0.1 M PB, then placed in cryoprotectant (30% sucrose in 0.1 M PB) for an additional 4-5 days. To maintain a consistent plane for coronal sections, brains were placed in a rat brain matrix (ASI instruments, Model No. RBM-4000C) and cut with a razor blade at the caudal border of the mammillary bodies. Brains were frozen in cooled liquid isopentane made by immersing a plastic vessel containing isopentane into a dewar flask containing liquid nitrogen. Serial coronal sections (30 μm) were cut using a cryostat and were immediately placed in cryoprotectant consisting of 27% ethylene glycol and 16% glycerol in 0.05 M PB to yield six alternate sets of sections. Sections were stored at −20° C. until immunohistochemical processing.
All brain sections were immunostained with the c-Fos primary antibody in a single immunohistochemical run, rather than in batches, with large volume incubations to limit variability in the quality of immunohistochemical staining among brain sections. However, the forebrain was immunostained for c-Fos in one run and the brainstem (i.e., midbrain, pons and medulla) in another. Immunostaining for c-Fos protein was accomplished using an affinity-purified primary antibody directed at c-Fos (rabbit anti-human c-Fos polyclonal affinity-purified antibody, Cat. no. sc-52, Santa Cruz Biotechnology, San Diego, Calif.; diluted 1:10,000). Free-floating sections were washed in 0.1 M PBS for 30 min, then incubated in 1% H2O2 in PBS for 20 min. Sections were then washed 10 min in PBS and 20 min in PBS with 0.3% Triton X-100 (PBST). Sections were then incubated 12-16 h in PBST with primary antibody solution at room temperature. After a 30 min wash in PBST, sections were incubated for 2 hr in biotinylated goat anti-rabbit IgG (Cat no. BA-1000, Vector Laboratories, Burlinghame, Calif.; diluted 1:500). Sections were washed again for 30 min in PBST then incubated 1.5 hr in an avidin-biotin-peroxidase complex provided in a standard Vector Elite kit (Cat no. PK-6100, Vector Laboratories, diluted 1:200). The peroxidase substrate for the chromogen reaction was Vector SG, which was prepared as recommended by the manufacturer (Cat. no. SK-4700, Vector Laboratories). The substrate reaction was run for 20 min for the forebrain. All sections were mounted on clean glass slides, dried overnight, dehydrated and mounted with coverslips using DPX mounting medium (BDH Laboratory Supplies, Poole, UK). All washes and incubations were done at room temperature in 12-well polystyrene plates with low frequency shaking on an orbital shaker.
Selection of anatomical levels for analysis of c-Fos-immunostained cells was conducted with reference to illustrations from a rat brain stereotaxic atlas (Paxinos and Watson, 1997). Selection of anatomical levels was also done in reference to major anatomical landmarks including white matter tracts and the ventricular systems.

Structure (SMILES) | anxiety-like responses (social interaction (SI) duration) after NaLac challenge [1] | NaLac induced increases in general locomotor activity [2] | NaLac induced increases in heart rate (HR) [2] | NaLac induced increases in mean arterial blood pressure (MAP) [2] | all lactate induced panic-like responses (SI, Activity, HR, MAP) ([1]; i.p. 30 min prior to lactate, SB334867 30 mg/kg) | time in open arms of elevated plus maze (FG-7142 treated rats) | Mean number of c-Fos immunoreactive cells, Amygdala (−2.56 mm bregma) BLA (c-Fos) | Mean number of c-Fos immunoreactive cells, Amygdala (−2.56 mm bregma) LA (c-Fos) | Mean number of c-Fos immunoreactive cells, Amygdala (−2.56 mm bregma) MeA (c-Fos) | Mean number of c-Fos immunoreactive cells, DRN (−7.80 mm bregma) (c-Fos) | Mean number of c-Fos immunoreactive cells, ILC (+2.60 mm bregma) (c-Fos) | Mean number of c-Fos immunoreactive cells, IPBN (−9.30 mm bregma) (c-Fos) | Mean number of c-Fos immunoreactive cells, LC (−10.04 mm bregma) (c-Fos) | Mean number of c-Fos immunoreactive cells, LSI (+0.20 mm bregma) (c-Fos) | Mean number of c-Fos immunoreactive cells, PRL (+2.60 mm bregma) (c-Fos) | Mean number of c-Fos immunoreactive cells, PeF (−3.14 mm bregma) (c-Fos) | Mean number of c-Fos immunoreactive cells, mPBN (−9.30 mm bregma) (c-Fos)
Cc1cc(NC(=O)Nc2ccc(N(C)C)cc2)c2cc(F)cc(F)c2n1 [SB408124, N-(6,8-Difluoro-2-methyl-4-quinolinyl)-N′-(4-(dimethylamino)phenyl)urea] | did not significantly alter | did attenuate; also recorded: attenuated | did attenuate; also recorded: attenuated | did not significantly alter |  |  |  |  |  |  |  |  |  |  |  |  | 
Cc1nnc2n1-c1ccc(Cl)cc1C(c1ccccc1)=NC2 [alprazolam] | attenuated | attenuated | attenuated | attenuated | attenuated; also recorded: anti-panic effects |  |  |  |  |  |  |  |  |  |  |  | 
CNC(=O)c1cc2c(cn1)[nH]c1ccccc12 [FG-7142] |  |  |  |  |  | low open arm times | 9 ± 4 | 10 ± 4 | 85 ± 18 | 1 ± 0 | 12 ± 6 | 9 ± 3 | 48 ± 5 | 12 ± 4 | 3 ± 1 | 67 ± 23 | 3 ± 1
